Assay results reported in PubChem BioAssay (NCI).
Several values for one entry are separate records, joined by “and”; a condition that tells them apart may be missing. Identical values can stand only once.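 Cells were grown in 96-well plates and exposed to each compound for 48 hours at five concentrations; endpoints were interpolated linearly between bracketing concentrations, or set to the highest concentration if not reached. At the GI50, growth is halved. TGI: concentration producing complete growth inhibition.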

Columns and labels:
Assay in all cases: NCI-60 cell line screen, 48 h
[1] = tested on: OVCAR-4 ovarian
[2] = tested on: NCI-H460 lung
[3] = tested on: NCI-H23 lung
[4] = tested on: SK-MEL-5 melanoma
[5] = tested on: U251 CNS
[6] = tested on: HS 578T breast
[7] = tested on: SF-295 CNS
[8] = tested on: SNB-19 CNS
[9] = tested on: NCI-H522 lung
[10] = tested on: SF-268 CNS

Row | SMILES | GI50 [1] [µM] | TGI [1] [µM] | GI50 [2] [µM] | TGI [2] | GI50 [3] [µM] | TGI [3] | GI50 [4] [µM] | TGI [4] | GI50 [5] [µM] | TGI [5] | GI50 [6] [µM] | TGI [6] | GI50 [7] [µM] | TGI [7] [µM] | GI50 [8] [µM] | TGI [8] | GI50 [9] [µM] | TGI [9] [µM] | GI50 [10] [µM] | TGI [10]
1 | COc1cc(N2CCN(C(C)C)CC2)ccc1Nc1nc(Nc2ccc(F)cc2C(=O)NCC(O)CO)c2cc[nH]c2n1 (stereo unspecified) | > 25 | > 25 | 6.05 | 19.4 µM | 4.22 | > 23.3 µM | 11.4 | > 25 µM | 5.22 | > 25 µM | 6.9 | > 25 µM | 11.4 | > 25 | 7.41 | > 25 µM | 4.79 | > 25 | 6.89 | > 25 µM
2 | Cc1ccc(S(=O)(=O)OCC(=O)Nc2ccc(C(=O)O)c(O)c2)cc1 | 26.8 | 143 | 124 | 292 µM | 29.4 | 105 µM | 27 | 82.6 µM | 16.3 | 34.5 µM | 20.3 | 61.8 µM | 167 | 322 | 66.5 | 242 µM | 11.9 | 34.6 | 19.5 | 53.5 µM
3 | Cc1cncc(-c2nc(NCCc3c[nH]c4ccccc34)c3ncn(C(C)C)c3n2)c1 | 3.93 | 39.6 | 3.33 | 13.3 µM | 5.34 | 19.4 µM | 4.23 | 15.5 µM | 4.96 | 39.6 µM | 2.64 | 9.96 µM | 2.74 | 10.8 | 11.5 | 46.6 µM | 5.66 | 23.2 | 5.93 | 38.6 µM
4 | CC(=O)OC1CC2C(C)(C)CCC[C@]2(C)C2=C1C(O)=C(C(C)C)C(=O)C2=O (stereo partly specified) | 0.8 | 7.07 | 0.354 | 1.69 µM | 0.704 | 2.98 µM | 0.174 | 0.343 µM | 0.666 | 21.7 µM | 0.532 | > 20.4 µM | 0.644 | 2.57 | 0.646 | > 46 µM | 1.65 | 3.42 | 0.902 | 10.1 µM
5 | Cc1cc(I)cc(CNCCN2CCOCC2)c1O | > 100 | > 100 | 52.8 | > 100 µM | 27.5 | > 100 µM | 67.1 | > 100 µM | > 100 | > 100 µM | > 100 | > 100 µM | 36 | > 100 | > 100 | > 100 µM | 92.8 | > 100 | 93.2 | > 100 µM
6 | O=C(CN1CCN(CCN2C(=O)c3cccc4cccc(c34)C2=O)CC1)Nc1ccc2ncsc2c1 | 11.3 | 26.5 | 3.58 | 14.7 µM | 7.08 | 27 µM | 3.7 | 16 µM | 4.39 | 17.2 µM | 43.3 | > 100 µM | 4.9 | 20.7 | 4.5 | 21.7 µM | 3.96 | 18 | 6.07 | 25 µM
7 | O=C(COc1cccc(/C=C2\COc3ccccc3C2=O)c1)c1ccccc1 | 3.84 | 15.4 | 12.3 | 24.9 µM | 4.47 | 16.1 µM | 2.83 | 7.63 µM | 1.65 | 3.03 µM | 2.34 | > 100 µM | 1.93 | 15.8 | 11.8 | 24 µM | 1.81 | 3.79 | 3.23 | 10.2 µM
8 | C=C[C@H]1CN2CCc3c([nH]c4c([C@@H]5CCCN5C)c(O)ccc34)[C@@H]2C[C@@H]1C[C@H]1c2[nH]c3ccccc3c2CCN1C |  | 3.2 |  | 3.1 µM and 2.99 µM |  | 3.63 µM and 3.71 µM |  | 3.02 µM and 3.04 µM |  | 2.94 µM and 2.95 µM |  | 3.04 µM and 3.39 µM |  | 3.05 | 1.09 | 3.5 µM and 2.33 µM and 3.2 µM |  | 3.66 |  | 3.03 µM and 3.42 µM
9 | CN1C(=O)/C(=C2\S/C(=N\c3nnc(-c4ccccc4)o3)NC2=O)c2ccccc21 | > 100 | > 100 | 65.6 | > 100 µM | > 100 | > 100 µM | 90.1 | > 100 µM | 66.4 | > 100 µM | > 100 | > 100 µM | 41.2 | > 100 | > 100 | > 100 µM | > 100 | > 100 | > 100 | > 100 µM
10 | CCC(CC)c1cc(N[C@H]2CC[C@H](N)C2)n2nccc2n1 | 0.978 | 22.8 | 0.358 | > 100 µM | 2.2 | 8.29 µM | 2.21 | 11 µM | 0.858 | > 100 µM | 2.27 | 9.44 µM | 1.83 | > 100 | 1.06 | > 100 µM | 0.281 | 1.55 | 2.44 | 13.9 µM
11 | CN1CCN(Cc2ccc(NC(=O)c3cncc(C#Cc4c(N)ncc5c(F)cccc45)c3)cc2C(F)(F)F)CC1 | 0.503 | 1.25 | 0.803 | 1.57 µM | 0.804 | 1.69 µM | 0.841 | 1.55 µM | 0.725 | 1.42 µM | 0.812 | 2.18 µM | 0.89 | 1.77 | 0.867 | 1.59 µM | 0.75 | 1.66 | 0.741 | 1.61 µM
12 | NS(=O)(=O)c1ccc(N=Nc2c(O)[nH]c3ccc(C(=O)NCCc4cnc[nH]4)cc23)cc1 | > 25 | > 25 | > 25 | > 25 µM | > 25 | > 25 µM | > 25 | > 25 µM | > 25 | > 25 µM | > 25 | > 25 µM | > 25 | > 25 | > 25 | > 25 µM | > 25 | > 25 | > 25 | > 25 µM
13 | O=C(Nc1ccn(C2CC(I)C(COC(c3ccccc3)(c3ccccc3)c3ccccc3)O2)c(=O)n1)c1ccccc1 (stereo unspecified) |  | 16.7 |  | 14.1 µM |  | 21.5 µM |  | 14.9 µM |  | 14.5 µM |  | 21.5 µM |  | 21.5 |  | 21.5 µM |  | 21.5 |  | 17.9 µM
14 | c1ccc(COCC[P+](c2ccccc2)(c2ccccc2)c2ccccc2)cc1 | 0.444 | 12.2 | 1.5 | 10.7 µM | 0.664 | 6.75 µM | 0.396 | 1.61 µM | 0.869 | 11.7 µM | 2.81 | 17.9 µM | 1.39 | 6.64 | 1.03 | 10.7 µM | 0.467 | 4.17 | 3.17 | 23.1 µM
15 | NC(=O)c1cc(I)ccc1NC(=O)/C=C/c1ccccc1Cl | 2.26 | 67.7 | 0.413 | 4.7 µM | 1.07 | 19.6 µM | 0.366 | 13 µM | 0.578 | 19.5 µM | 0.34 | 2.19 µM | 0.592 | 19 | 0.869 | > 47.2 µM | 0.334 | 1.64 | 0.64 | 31 µM
16 | CCNC(=O)Oc1ccc(/C(=C(\C)c2ccc(Cl)cc2)c2ccc(OCCN(CC)CC)cc2)cc1 | 3.65 | 17.3 | 2.09 | 4.16 µM | 7.92 | 22.1 µM | 1.75 | 3.15 µM | 4.26 | 13.5 µM | 3.72 | 16.5 µM | 1.85 | 4.12 | 3.13 | 8.45 µM | 13.3 | 28.1 | 5.99 | 21 µM
17 | CON=C1C[C@]2(C[C@@H]3C[C@@H](C/C=C(\C)C[C@@H](C)/C=C/C=C4\CO[C@@H]5[C@H](O)C(C)=C[C@@H](C(=O)O3)[C@]45O)O2)O[C@H](/C(C)=C/C(C)C)[C@H]1C | 16 | 29.7 | 13.1 | 30.3 µM | 12.6 | 28.4 µM | 15.4 | 29.1 µM | 11.3 | 24.3 µM | 16.6 | 39.6 µM | 9.16 | 22 | 15.7 | 35.3 µM | 12 | 26.1 | 13 | 27.5 µM
